Assays:
[1] = tested on: SW-1736; assay: Cytotoxicity against human SW1736 cells assessed as cell survival at 60 uM after 96 hrs by sulforhodamine B assay relative to control; format: functional; settings: SW-1736, 96 h, read-out: Survival
[2] = target: T1, Acetylcholinesterase (Electrophorus electricus, UniProt O42275); assay: Competitive inhibition of electric eel AChE assessed as inhibition constant for enzyme-substrate-inhibitor complex preincubated for 20 mins followed by acetylthiocholine iodide substrate addition and measured for 30 mins at 1 min intervals by Ellman's method
T1 sequence (O42275 whole entry): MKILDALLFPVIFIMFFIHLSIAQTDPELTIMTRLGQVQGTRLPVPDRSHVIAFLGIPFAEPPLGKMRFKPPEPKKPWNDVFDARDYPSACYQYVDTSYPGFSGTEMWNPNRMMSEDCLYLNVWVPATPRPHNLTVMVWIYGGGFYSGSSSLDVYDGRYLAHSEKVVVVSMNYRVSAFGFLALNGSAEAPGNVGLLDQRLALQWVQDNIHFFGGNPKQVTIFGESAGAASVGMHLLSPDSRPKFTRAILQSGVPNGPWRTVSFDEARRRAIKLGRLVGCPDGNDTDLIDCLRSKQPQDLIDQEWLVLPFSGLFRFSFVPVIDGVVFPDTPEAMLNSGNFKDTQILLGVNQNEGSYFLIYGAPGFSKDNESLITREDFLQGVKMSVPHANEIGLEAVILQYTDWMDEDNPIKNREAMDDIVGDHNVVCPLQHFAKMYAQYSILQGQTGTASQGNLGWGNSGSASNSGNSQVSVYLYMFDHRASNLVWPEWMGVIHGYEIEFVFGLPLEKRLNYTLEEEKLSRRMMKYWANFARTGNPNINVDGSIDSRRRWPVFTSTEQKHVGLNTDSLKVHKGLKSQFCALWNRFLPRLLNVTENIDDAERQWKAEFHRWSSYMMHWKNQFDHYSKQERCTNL

[3] = tested on: MCF7; assay: Cytotoxicity against human MCF7 cells assessed as cell survival at 60 uM after 96 hrs by sulforhodamine B assay relative to control; format: functional; settings: MCF7, 96 h, read-out: Survival
[4] = tested on: FaDu; assay: Cytotoxicity against human FADU cells assessed as cell survival at 60 uM after 96 hrs by sulforhodamine B assay relative to control; format: functional; settings: read-out: Survival
[5] = Cytotoxicity against mouse NIH/3T3 cells assessed as cell survival at 60 uM after 96 hrs by sulforhodamine B assay relative to control; format: cell-based, NIH3T3; settings: read-out: Survival
[6] = tested on: HT-29; assay: Cytotoxicity against human HT-29 cells assessed as cell survival at 60 uM after 96 hrs by sulforhodamine B assay relative to control; format: functional; settings: HT-29, 96 h, read-out: Survival
[7] = tested on: A253 cell line; assay: Cytotoxicity against human A253 cells assessed as cell survival at 60 uM after 96 hrs by sulforhodamine B assay relative to control; format: functional; settings: A253, 96 h, read-out: Survival
[8] = target: T1, Acetylcholinesterase; assay: Competitive inhibition of electric eel AChE assessed as inhibition constant for enzyme inhibitor complex preincubated for 20 mins followed by acetylthiocholine iodide substrate addition and measured for 30 mins at 1 min intervals by Ellman's method
[9] = Solubility of the compound in DMSO; format: physicochemical
[10] = tested on: A253 cell line; assay: Cytotoxicity against human A253 cells assessed as cell survival at 40 uM after 96 hrs by sulforhodamine B assay relative to control; format: functional; settings: A253, 96 h, read-out: Survival
[11] = tested on: HT-29; assay: Cytotoxicity against human HT-29 cells assessed as cell survival at 40 uM after 96 hrs by sulforhodamine B assay relative to control; format: functional; settings: HT-29, 96 h, read-out: Survival
[12] = tested on: MCF7; assay: Cytotoxicity against human MCF7 cells assessed as cell survival at 40 uM after 96 hrs by sulforhodamine B assay relative to control; format: functional; settings: MCF7, 96 h, read-out: Survival
[13] = Cytotoxicity against mouse NIH/3T3 cells assessed as cell survival at 40 uM after 96 hrs by sulforhodamine B assay relative to control; format: cell-based, NIH3T3; settings: read-out: Survival
[14] = tested on: FaDu; assay: Cytotoxicity against human FADU cells assessed as cell survival at 40 uM after 96 hrs by sulforhodamine B assay relative to control; format: functional; settings: read-out: Survival
[15] = tested on: SW-1736; assay: Cytotoxicity against human SW1736 cells assessed as cell survival at 40 uM after 96 hrs by sulforhodamine B assay relative to control; format: functional; settings: SW-1736, 96 h, read-out: Survival

Structure (SMILES): CCCCCCCCCCC/C=C/C(=O)N1CCCCCC1
- viability at 60 µM [1]: 80%
- Ki [2]: 45.4 µM
- viability at 60 µM [3]: 35%
- viability at 60 µM [4]: 85%
- viability at 96 h, 60 µM [5]: 63%
- viability at 60 µM [6]: 57%
- viability at 60 µM [7]: 63%
- Ki [8]: 9.99 µM

Structure (SMILES): CCCCCCCCCCC/C=C/C(=O)N1CCC1
- viability at 60 µM [1]: 89%
- viability at 60 µM [3]: 59%
- viability at 60 µM [4]: 95%
- viability at 96 h, 60 µM [5]: 80%
- viability at 60 µM [6]: 84%
- viability at 60 µM [7]: 77%

Structure (SMILES): CCCCCCCCCCCCCCCCC/C=C/C(=O)N1CCCCC1
- solubility [9]: Insoluble

Structure (SMILES): CCCCCCCCCCCCCCCCC/C=C/C(=O)N1CCCCCCC1
- solubility [9]: Insoluble

Structure (SMILES): CCCCCCCCCCCCCCC/C=C/C(=O)N1CCCCC1
- solubility [9]: Insoluble

Structure (SMILES): CCCCCCCCCCCCCCCCC/C=C/C(=O)N1CCCC1
- solubility [9]: Insoluble

Structure (SMILES): CCCCCCCCCCCCCCCCC/C=C/C(=O)N1CCCCCC1
- solubility [9]: Insoluble

Structure (SMILES): CCCCCCCCCCC/C=C/C(=O)N1CCCC1
- viability at 60 µM [1]: 99%
- viability at 60 µM [3]: 69%
- viability at 60 µM [4]: 96%
- viability at 96 h, 60 µM [5]: 78%
- viability at 60 µM [6]: 86%
- viability at 60 µM [7]: 86%

Structure (SMILES): CCCCCCCCCCC/C=C/C(=O)N1CCCCC1
- viability at 40 µM [10]: 67%
- viability at 40 µM [11]: 68%
- viability at 40 µM [12]: 51%
- viability at 96 h, 40 µM [13]: 74%
- viability at 40 µM [14]: 97%
- viability at 40 µM [15]: 63%

Structure (SMILES): CCCCCCCCCCCCC/C=C/C(=O)N1CCCCC1
- viability at 40 µM [10]: 57%
- viability at 40 µM [11]: 47%
- Ki [2]: > 50 µM
- viability at 40 µM [12]: 40%
- viability at 96 h, 40 µM [13]: 80%
- viability at 40 µM [14]: 90%
- Ki [8]: 7.45 µM
- viability at 40 µM [15]: 77%

Structure (SMILES): CCCCCCCCCCCCC/C=C/C(=O)N1CCC1
- viability at 40 µM [10]: 69%
- viability at 40 µM [11]: 71%
- viability at 40 µM [12]: 62%
- viability at 96 h, 40 µM [13]: 92%
- viability at 40 µM [14]: 96%
- viability at 40 µM [15]: 88%

Structure (SMILES): CCCCCCCCCCCCC/C=C/C(=O)N1CCCCCC1
- viability at 40 µM [10]: 46%
- viability at 40 µM [11]: 22%
- Ki [2]: 81.9 µM
- viability at 40 µM [12]: 27%
- viability at 96 h, 40 µM [13]: 69%
- viability at 40 µM [14]: 77%
- Ki [8]: 3.41 µM
- viability at 40 µM [15]: 61%

Structure (SMILES): CCCCCCCCCCCCC/C=C/C(=O)N1CCCCCCC1
- viability at 40 µM [10]: 40%
- viability at 40 µM [11]: 15%
- Ki [2]: 23.3 µM
- viability at 40 µM [12]: 27%
- viability at 96 h, 40 µM [13]: 50%
- viability at 40 µM [14]: 61%
- Ki [8]: 2.04 µM
- viability at 40 µM [15]: 43%

Structure (SMILES): CCCCCCCCCCC/C=C/C(=O)N1CCCCCCC1
- viability at 60 µM [1]: 76%
- Ki [2]: 23 µM
- viability at 60 µM [3]: 40%
- viability at 60 µM [4]: 84%
- viability at 96 h, 60 µM [5]: 70%
- viability at 60 µM [6]: 52%
- viability at 60 µM [7]: 57%
- Ki [8]: 6.83 µM

Structure (SMILES): CCCCCCCCCCCCCCC/C=C/C(=O)N1CCCCCCC1
- viability at 60 µM [1]: 81%
- Ki [2]: > 50 µM
- viability at 60 µM [3]: 83%
- viability at 60 µM [4]: 93%
- viability at 96 h, 60 µM [5]: 75%
- viability at 60 µM [6]: 69%
- viability at 60 µM [7]: 80%
- Ki [8]: 5.09 µM

Structure (SMILES): CCCCCCCCCCCCCCC/C=C/C(=O)N1CCCCCC1
- viability at 60 µM [1]: 86%
- Ki [2]: 41.5 µM
- viability at 60 µM [3]: 75%
- viability at 60 µM [4]: 94%
- viability at 96 h, 60 µM [5]: 74%
- viability at 60 µM [6]: 76%
- viability at 60 µM [7]: 88%
- Ki [8]: 3.16 µM

Structure (SMILES): CCCCCCCCCCCCCCC/C=C/C(=O)N1CCC1
- solubility [9]: Insoluble

Structure (SMILES): CCCCCCCCCCCCCCC/C=C/C(=O)N1CCCC1
- solubility [9]: Insoluble

Structure (SMILES): CCCCCCCCCCCCCCCCC/C=C/C(=O)N1CCC1
- solubility [9]: Insoluble

Structure (SMILES): CCCCCCCCCCCCC/C=C/C(=O)N1CCCC1
- viability at 40 µM [10]: 44%
- viability at 40 µM [11]: 24%
- viability at 40 µM [12]: 24%
- viability at 96 h, 40 µM [13]: 60%
- viability at 40 µM [14]: 79%
- viability at 40 µM [15]: 42%
